Measured values as given in patent US9693997B2, “Antiviral compounds” (priority 2013, dated 2017).

Legend:
Assay in all cases: microbe, parasite or virus in culture
[1] = test system: Pseudotyped HCV GT1b particles (HCVpp), entry into Huh7-high CD81 cells; format: cell-based, HCV GT1b Con1 strain; conditions: Hepatitis C virus, GT1B, 72 h, read-out: HCVpp GT-1b (EC50, μM)
[2] = test system: Pseudotyped HCV GT1a particles (HCVpp), entry into Huh7-high CD81 cells; format: cell-based, HCV GT1a H77 strain; conditions: Hepatitis C virus, 72 h, read-out: HCVpp GT-1a (EC50, μM)
[3] = test system: pseudotyped VSV G particles (VSVpp) in Huh7-high CD81 cells; format: cell-based, vesicular stomatitis virus; conditions: Vesicular stomatitis virus, 72 h, read-out: VSVpp (EC50, μM)

SMILES: Nc1nc(Nc2cc(Cl)c(-c3ccc(N4CCCS4(=O)=O)cc3)c(Cl)c2)n[nH]1 [Compound 289, N-3-[2,6-Dichloro-4′-(1,1-dioxo-1,6-isothiazolidin-2-yl)-biphenyl-4-yl]-1H-[1,2,4]triazole-3,5-diamine]
- EC50 [1]: 0.046 µM
- EC50 [2]: 0.002 µM
- EC50 [3]: 17.8 µM
